Test results taken from US12404263B2, “ASK1 inhibiting agents” (BIOGEN MA INC., priority 2018, dated 2025).

Assays:
GST-hASK1 = molecular target: T1, GST-hASK1 (Homo sapiens, UniProt Q99683); experiment: ASK1 TR-FRET assay; format: biochemical; conditions: 5 nM GST-hASK1, 100 μM ATP, 2 μM STK Substrate 3
T1 construct: GST (N); purchased Life Technologies PV4011
T1 sequence (Q99683 1-1374): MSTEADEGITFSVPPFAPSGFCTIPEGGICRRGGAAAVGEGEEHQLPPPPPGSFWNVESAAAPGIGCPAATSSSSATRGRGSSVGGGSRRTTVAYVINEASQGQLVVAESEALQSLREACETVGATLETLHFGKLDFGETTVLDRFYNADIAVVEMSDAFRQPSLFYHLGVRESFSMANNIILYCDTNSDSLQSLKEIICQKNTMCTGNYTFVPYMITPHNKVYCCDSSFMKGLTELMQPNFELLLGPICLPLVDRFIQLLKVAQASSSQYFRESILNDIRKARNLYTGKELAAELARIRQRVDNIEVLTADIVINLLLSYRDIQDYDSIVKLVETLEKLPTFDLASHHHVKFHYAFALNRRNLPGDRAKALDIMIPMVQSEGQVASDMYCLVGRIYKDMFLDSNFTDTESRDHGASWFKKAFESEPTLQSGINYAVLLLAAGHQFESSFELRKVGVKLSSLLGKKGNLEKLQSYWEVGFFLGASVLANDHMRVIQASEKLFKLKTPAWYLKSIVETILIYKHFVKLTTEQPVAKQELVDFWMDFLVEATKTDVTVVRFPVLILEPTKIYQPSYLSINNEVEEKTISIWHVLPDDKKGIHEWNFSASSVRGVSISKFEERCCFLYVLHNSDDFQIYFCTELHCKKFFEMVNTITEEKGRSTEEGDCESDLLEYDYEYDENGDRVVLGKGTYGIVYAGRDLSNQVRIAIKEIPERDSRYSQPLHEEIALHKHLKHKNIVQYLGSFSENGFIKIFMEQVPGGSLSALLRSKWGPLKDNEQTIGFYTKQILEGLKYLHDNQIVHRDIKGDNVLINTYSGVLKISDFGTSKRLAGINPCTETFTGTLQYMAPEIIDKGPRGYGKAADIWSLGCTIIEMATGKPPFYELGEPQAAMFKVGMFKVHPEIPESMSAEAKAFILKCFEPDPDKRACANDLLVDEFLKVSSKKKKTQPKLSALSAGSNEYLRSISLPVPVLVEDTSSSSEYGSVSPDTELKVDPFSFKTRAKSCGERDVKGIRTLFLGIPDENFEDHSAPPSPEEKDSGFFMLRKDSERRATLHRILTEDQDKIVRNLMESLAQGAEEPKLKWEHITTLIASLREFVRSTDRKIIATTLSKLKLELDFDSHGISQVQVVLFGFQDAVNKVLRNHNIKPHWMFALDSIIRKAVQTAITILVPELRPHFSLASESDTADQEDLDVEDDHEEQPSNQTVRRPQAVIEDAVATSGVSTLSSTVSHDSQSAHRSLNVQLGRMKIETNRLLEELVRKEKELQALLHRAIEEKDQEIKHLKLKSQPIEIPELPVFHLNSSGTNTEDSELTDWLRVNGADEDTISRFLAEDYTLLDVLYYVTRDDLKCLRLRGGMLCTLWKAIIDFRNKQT
Method: The protein kinase activity of 5 nM GST-hASK1 (Life Technologies PV4011) was assayed with 100 μM ATP and 2 μM of HTRF biotinylated STK Substrate 3 (CisBio Kit 62ST3PEJ), at ambient temperature in 25 mM Hepes, pH 7.5, 50 mM NaCl, 10 mM MgCl2, 0.02% Brij-35, 1 mM DTT, and 1% DMSO.
Briefly, 20 μL aliquots of a 1.5× stock of ASK1, STK Substrate 3 and Assay Buffer were distributed in the wells of a white 384 well Optiplate, prior to addition of 0.3 μL of a 100× compound stock in DMSO, or DMSO alone in Blank and 100% Activity Controls. After a 10 minute pre-incubation, ASK1 protein kinase activity was initiated by addition of 10 μL of 300 μM ATP. After 5 hours, the kinase activity was quenched by addition of 30 μL of CisBio Kit 62ST3PEJ components: 0.5 μM of Streptavidin XL665; and 100×STK Antibody-Eu Cryptate; in Detection Buffer containing sufficient EDTA to chelate Mg^2+ in the assay buffer. The plates were read after 65 minutes in an Envision Plate reader, with the following components and settings: Top Mirror, Lance Delfia Dual (662); UV Ex Filter, 320 nm (111); Emission Filter for donor, 615 nm (203); Emission Filter for Acceptor; 665 nm (205); and 100 μsec delay, with 665/615 ratio output. […]

[1] = molecular target: T2, ASK1 T838 auto phosphorylation (Homo sapiens, UniProt Q99683); experiment: ASK1 (AUTO PHOS T838) assay in HEK-293T cells, MSD format; format: cell-based; conditions: HEK-293T cells transfected with ASK1-V5, 1 hr compound incubation; read-out: IC50
T2 construct: transfected with 9 μg of ASK1-V5 tagged full length plasmid; expressed in transfected cells; host or cells: HEK-293T
T2 sequence (Q99683 1-1374): T1 sequence (Q99683 1-1374)
Method: ASK1 T838 auto phosphorylation was measured in HEK-293T cells using MSD assay format. HEK 293T cells were seeded in 15 cm plates at a density of 18 million cells and 20 mL DMEM with 10% FBS, Pen/Strep media. The plates were incubated at 37° C. overnight. Media on plates was changed to OPTI-MEM, serum free media and cells were transfected with 9 μg of ASK1-V5 tagged full length plasmid using Lipofectamine 2000 (Invitrogen) and the plates were incubated at 37° C. overnight. Cells were trypsinized, counted on Nexcellometer and plated into 96 well tissue culture plates with 100,000 cells/well and 200 μL media. Cells were incubated for 4 hr at 37° C. then ASK1 compounds were added using a HP 300e. Compounds were tested at 20 μM with 3 fold, 10 point dilution points then incubated for 1 hr at 37° C. A lysis buffer (Cell Signaling) was prepared with protease and phosphatase inhibitor and maintained at 4° C. until use. Media from cells was discarded and 120 μL of cold lysis buffer was added to the cells, the plate was shaken 4° C. for 1 hr. Lysate was mixed using Apricot liquid handler; aspirating up and down 16 times at high speed using 50 μL volume. 50 μL of cell lysates were transferred to a pre-coated MSD plates containing mouse anti-V5 antibody (1:500 dilution) and washed 3× with MSD wash buffer (TBST) and blocked with a 3% BSA solution. Plates were then incubated on a plate shaker overnight at 4° C. Plates were washed 3× with MSD wash buffer and 50 μL of rabbit anti-pASK1 T838 antibody was added to the wells and incubated for 2 hr at room temperature on a plate shaker. Plates were then washed and 50 μL of goat anti-rabbit sulfa-tag (1:500 dilution) was added to wells, and incubated for 1 hr at room temperature on a plate shaker. Plates were washed 3× and 150 μL of 2×MSD Read buffer was added to wells. Plates were immediately read on a MSD Instrument Reader where chemoluminecense signal was measured. Data was analyzed using Graph Pad or Genedata, the data was normalized and plotted, % activity versus log of compound concentration. The IC50 values were obtained from a 4 parameter fit.

ASK1/MAP3K5 = molecular target: T3, ASK1/MAP3K5 (Homo sapiens, UniProt Q99683); experiment: ASK1/MAP3K5 assay by Reaction Biology Corp. (33P-ATP filter-binding); format: biochemical; conditions: 20 μM MBP, 100 μM ATP
T3 construct: purchased Reaction Biology Corp. (Malvern, PA)
T3 sequence (Q99683 1-1374): T1 sequence (Q99683 1-1374)
Method: Alternatively, the protein kinase inhibitory activity of the compounds described herein were tested using the ASK1/MAP3K5 assay by Reaction Biology Corp. (Malvern, PA). The assay procedure follows (and is also available on the Reaction Biology Corp. website). • Base Reaction Buffer: 20 mM Hepes (pH 7.5), 10 mM MgCl2, 1 mM EGTA, 0.02% Brij35, 0.02 mg/mL BSA, 0.1 mM Na3VO4, 2 mM DTT, 1% DMSO; • Substrate: 20 μM of myelin basic protein (MBP) and 100 μM ATP; • Protein kinase: ASK1/MAP3K5. Reaction Procedure: • 1. Prepare indicated substrate in freshly prepared Base Reaction Buffer. • 2. Deliver any required cofactors to the substrate solution. • 3. Deliver indicated kinase into the substrate solution and gently mix. • 4. Deliver compounds in DMSO into the kinase reaction mixture by Acoustic; technology (Echo550; nanoliter range), incubate for 20 minutes at room temperature. • 5. Deliver ^33P-ATP (specific activity 10 μCi/μL) into the reaction mixture to initiate the reaction. • 6. Incubate kinase reaction for 2 hours at room temperature. • 7. Reactions are spotted onto P81 ion exchange paper. • 8. Detect kinase activity by filter-binding method.

MDR1 = molecular target: T4, MDR1 (Homo sapiens, UniProt P08183); experiment: MDR1-MDCK assay; format: in vitro ADME; conditions: read-out: in vitro ER (efflux ratio)
T4 construct: host or cells: MDCK
Method: To predict the CNS penetration of the compounds described herein, several compounds were selected for an in vitro MDR1-MDCK assay. These experiments are conducted using human MDR1 transfected MDCK cells (Absorption Systems, Exton, PA) and the compounds are tested at 1 μM concentration prepared in transport buffer (Hank's balanced salt solution with HEPES) and following the steps below: • 1. MDR1-MDCK cell are cultured for 7 days in 96 well transwell insert plates (Corning). Insert plates are washed before the assay and TEER (trans epithelial electric resistance) is measured. • 2. These plates are loaded with test compound solution 85 μL for A-B transport and 260 μL for B-A transport in the respective donor compartment. The volume of receiver buffer (Transport buffer supplemented with 1% BSA) in the respective receiver compartment is 250 μL and 75 μL. • 3. 10 μL samples is taken from donor compartment (T=0 timepoint) • 4. Assay plates are incubated for 120 minutes. • 5. At 120 minutes (T=120 timepoint) samples from respective donor (10 μL) and receiver (50 μL) compartments is taken. • 6. After addition of 40 μL transport buffer with BSA to donor samples, crash solution (Acetonitrile with internal standard, 110 μL) is added to all samples. • 7. […] Samples are analyzed using LC-MS/MS coupled with high throughput injection system. • 9. […]

[2] = In vivo brain penetration (rat Kpuu); conditions: brain and plasma (unbound concentrations), IV infusion four hours, 1 mg/kg, steady state
Method: To evaluate the CNS penetration of the compounds described herein, several compounds were selected for in vivo rat Kpuu studies. In these experiments the compounds are administered via an IV infusion (using N,N-dimethylacetamide:ethanol:1,2-propylene glycol:water in a 1:1:3:5 ratio as the vehicle) in the carotid artery for a period of four hours (1 mg/kg, 0.1 mg/mL) to reach steady state. After this time the plasma and brain concentration levels are quantified, and the values are adjusted by the measured protein binding in plasma and brain homogenate to calculate the K puu (see Di, L.; Kerns, E. H. Blood-Brain Barrier in Drug Discovery (Wiley)) according to the equation below. […]
Plasma and brain protein binding values were generated via the Rapid Equilibrium Dialysis method. […] At the conclusion of incubation samples were taken from both matrix and buffered compartments, matrix-matched using blank buffer and matrix, extracted with acetonitrile, diluted with water, and analyzed utilizing an Agilent RapidFire 365 high-throughput LC coupled with MS/MS detection via an AB Sciex 5500. Free fractions (fu) were then calculated by comparing internal standard/analyte peak-area ratios of matrix and buffered compartments.
Total drug concentration in plasma and brain tissue was measured via well-established bioanalytical extraction (protein precipitation) and detection methods (LC-MS/MS). […]

T4 sequence (P08183 whole entry): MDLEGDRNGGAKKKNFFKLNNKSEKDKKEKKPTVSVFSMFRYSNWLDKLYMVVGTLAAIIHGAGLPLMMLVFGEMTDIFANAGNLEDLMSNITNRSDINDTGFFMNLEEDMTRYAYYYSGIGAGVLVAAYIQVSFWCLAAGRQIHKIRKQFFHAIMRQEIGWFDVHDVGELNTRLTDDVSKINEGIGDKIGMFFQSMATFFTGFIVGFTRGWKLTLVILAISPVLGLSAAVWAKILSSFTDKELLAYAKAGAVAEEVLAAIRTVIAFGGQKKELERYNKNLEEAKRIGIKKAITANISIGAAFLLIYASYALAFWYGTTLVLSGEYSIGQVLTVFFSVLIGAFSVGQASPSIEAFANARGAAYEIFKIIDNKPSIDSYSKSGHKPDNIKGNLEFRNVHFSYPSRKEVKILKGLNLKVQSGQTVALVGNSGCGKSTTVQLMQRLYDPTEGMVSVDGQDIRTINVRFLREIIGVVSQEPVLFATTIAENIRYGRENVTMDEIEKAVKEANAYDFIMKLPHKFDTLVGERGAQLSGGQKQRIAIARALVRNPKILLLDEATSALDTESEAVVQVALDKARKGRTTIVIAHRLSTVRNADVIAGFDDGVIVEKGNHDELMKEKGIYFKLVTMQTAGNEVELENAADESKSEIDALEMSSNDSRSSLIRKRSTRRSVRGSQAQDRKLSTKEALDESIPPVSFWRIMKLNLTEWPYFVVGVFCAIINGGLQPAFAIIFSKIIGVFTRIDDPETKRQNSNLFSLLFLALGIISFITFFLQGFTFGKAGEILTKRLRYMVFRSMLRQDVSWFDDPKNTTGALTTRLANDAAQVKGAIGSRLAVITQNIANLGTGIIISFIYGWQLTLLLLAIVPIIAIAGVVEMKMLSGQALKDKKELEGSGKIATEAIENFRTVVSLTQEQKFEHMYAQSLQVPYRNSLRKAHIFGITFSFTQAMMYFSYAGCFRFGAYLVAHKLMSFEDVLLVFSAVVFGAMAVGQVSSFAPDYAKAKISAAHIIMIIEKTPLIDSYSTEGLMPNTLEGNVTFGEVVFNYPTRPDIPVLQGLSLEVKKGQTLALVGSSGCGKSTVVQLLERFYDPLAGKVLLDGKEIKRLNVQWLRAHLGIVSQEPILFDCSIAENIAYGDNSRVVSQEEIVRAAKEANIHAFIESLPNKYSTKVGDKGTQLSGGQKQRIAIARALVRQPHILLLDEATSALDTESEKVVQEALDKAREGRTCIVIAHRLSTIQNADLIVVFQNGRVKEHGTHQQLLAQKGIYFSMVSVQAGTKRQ

Row | IC50 (GST-hASK1) [nM] | IC50 [1] [nM] | IC50 (ASK1/MAP3K5) [nM] | efflux ratio at 120 min, 1 μM (MDR1) | Kp uu at 4 h [2] | SMILES
1 | < 100 | ≤ 1000 | – | – | – | COc1ncccc1C(=O)Nc1cccc(-c2nncn2C(C)C)n1 [Compound 1, N-(6-(4-Isopropyl-4H-1,2,4-triazol-3-yl)pyridin-2-yl)-2-methoxynicotinamide]
2 | – | ≤ 1000 | ≤ 100 | < 3 | 0.41 | COc1ncccc1C(=O)Nc1cccc(-c2nncn2C2(C(F)(F)F)CC2)n1 [Compound 16, 2-Methoxy-N-(6-(4-(1-(trifluoromethyl)cyclopropyl)-4H-1,2,4-triazol-3-yl)pyridin-2-yl)nicotinamide]
